How the values were obtained:
hCRTH2 receptor [1] = molecular target: T1, hCRTH2 receptor (Homo sapiens (Human), UniProt Q9Y5Y4); test: hCRTH2 receptor membranes radioligand (3H-PGD2) displacement assay; conditions: 3H-PGD2 2.5 nM, HEK293-hCRTH2 membrane fragments, Binding-Buffer with 0.1% BSA
Procedure: (§1) First, recombinant HEK293-hCRTH2 cells were detached from culture plates into 5 ml buffer A/plate (Buffer A: 5 mM Tris, 1 mM MgCl2-6H2O pH=7.4) using a rubber policeman. Cells were then transferred into centrifugation tubes and centrifuged for 5 min at 400 g. The cell pellet was resuspended in the same buffer and tubes were frozen at −80° C. Cells were thawed and membrane fragments were generated by homogenization using a polytron homogenizer (30 seconds). The membrane fragments were then centrifuged at 3000 g for 20 minutes and resuspended in buffer C (Buffer C: 75 mM Tris, 25 mM MgCl2, 250 mM Saccharose pH 7.4). Aliquots of membrane fragments were stored at −20° C.
(§2) Binding assay was performed in a final assay volume of 250 μl. First, 25 μl of test compound, previously diluted in Binding-Buffer (Binding-Buffer: 50 mM Tris-Base, 100 mM NaCl, 1 mM EDTA, 0.1% BSA (protease free), 0.01% NaN3, 10 mM MnCl2 pH 7.0) was placed into each well. After addition of 75 μl Binding-Buffer, 50 μl of the radioligand ^3H-PGD2 (at 2.5 nM (220.000 dpm/well) from ANAWA ART0662) was added to each well. Binding assay was started by addition of 100 μl CRTH2 membrane fragments, reaching a final concentration of 20 μg/well. For non-specific binding, PGD2 was added to the reaction mixture to […] final concentration. This assay mix was incubated for 90 minutes at room temperature and then filtered through a GF/C filter 96-well plate which was pre-soaked for 3 hours in 0.5% polyethyleneimine (PEI). The filter-wells were washed three times with ice cold Binding-Buffer. Then, 40 μl of Microscint-40 (Packard) was added to each well and the retained radioactivity quantified in a Topcount (Packard).

hCRTH2 receptor [2] = molecular target: T1, hCRTH2 receptor; test: Radioligand displacement assay in presence of human serum albumin (HSA); conditions: 3H-PGD2 2.5 nM, HEK293-hCRTH2 membrane fragments, Binding-Buffer-HSA with 0.5% human serum albumin instead of 0.1% BSA
Procedure: as §1, §2
Radioligand displacement assay in presence of human serum albumin (HSA) was performed as described above, with following modifications. Binding-Buffer-HSA: Binding-buffer+0.5% Sigma Albumin from Human serum A1887 (instead of 0.1% BSA). A volume of 25 μl test compound, previously diluted in Binding-Buffer-HSA was placed into each well. After addition of 75 μl Binding-Buffer-HSA, 50 μl of ^3H-PGD2 (at 2.5 nM (220.000 dpm/well) from ANAWA ART0662) was added to each well. Remaining protocol was identical as described above.

T1 sequence (Q9Y5Y4 whole entry, the tested form may be a part): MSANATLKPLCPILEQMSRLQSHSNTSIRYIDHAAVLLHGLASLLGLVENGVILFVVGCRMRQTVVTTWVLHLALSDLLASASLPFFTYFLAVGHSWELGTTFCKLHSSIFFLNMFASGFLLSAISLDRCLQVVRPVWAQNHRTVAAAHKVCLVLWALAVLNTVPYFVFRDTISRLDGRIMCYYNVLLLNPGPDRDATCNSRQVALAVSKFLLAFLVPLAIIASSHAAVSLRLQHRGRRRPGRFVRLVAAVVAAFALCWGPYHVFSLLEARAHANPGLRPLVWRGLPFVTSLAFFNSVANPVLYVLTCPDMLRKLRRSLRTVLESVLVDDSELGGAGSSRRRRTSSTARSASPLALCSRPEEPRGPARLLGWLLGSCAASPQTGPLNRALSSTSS

SMILES	IC50 (hCRTH2 receptor [1]) [µM]	IC50 (hCRTH2 receptor [2]) [µM]
CN(c1ncc(Cl)cn1)C1CCc2c(CC(=O)O)c3ccccc3n2C1 (centres unmarked) [Example 1, 2-(7-((5-chloropyrimidin-2-yl)(methyl)amino)-6,7,8,9-tetrahydropyrido[1,2-a]indol-10-yl)acetic acid]	0.021	0.066
CN(c1ncc(F)cn1)C1CCc2c(CC(=O)O)c3ccccc3n2C1 (centres unmarked) [Example 2, 2-(7-((5-fluoropyrimidin-2-yl)(methyl)amino)-6,7,8,9-tetrahydropyrido[1,2-a]indol-10-yl)acetic acid]	0.009	0.029
CN(c1ncc(C(F)(F)F)cn1)C1CCc2c(CC(=O)O)c3ccccc3n2C1 (centres unmarked) [Example 3, 2-(7-(methyl(5-(trifluoromethyl)pyrimidin-2-yl)amino)-6,7,8,9-tetrahydropyrido[1,2-a]indol-10-yl)acetic acid]	0.008	0.152
CN(c1ncc(F)cn1)C1CCc2c(CC(=O)O)c3cc(F)ccc3n2C1 (centres unmarked) [Example 7, 2-(2-fluoro-7-((5-fluoropyrimidin-2-yl)(methyl)amino)-6,7,8,9-tetrahydropyrido[1,2-a]indol-10-yl)acetic acid]	0.017	0.119
CN(c1ncc(F)cn1)C1CCc2c(CC(=O)O)c3ccc(F)cc3n2C1 (centres unmarked) [Example 9, 2-(3-fluoro-7-((5-fluoropyrimidin-2-yl)(methyl)amino)-6,7,8,9-tetrahydropyrido[1,2-a]indol-10-yl)acetic acid]	0.001	0.01
COc1ccc2c(c1)c(CC(=O)O)c1n2CC(N(C)c2ncc(F)cn2)CC1 (centres unmarked) [Example 11, 2-(7-((5-fluoropyrimidin-2-yl)(methyl)amino)-2-methoxy-6,7,8,9-tetrahydropyrido[1,2-a]indol-10-yl)acetic acid]	0.42	–
Cc1ccc2c(c1)c(CC(=O)O)c1n2CC(N(C)c2ncc(F)cn2)CC1 (centres unmarked) [Example 13, 2-(7-((5-fluoropyrimidin-2-yl)(methyl)amino)-2-methyl-6,7,8,9-tetrahydropyrido[1,2-a]indol-10-yl)acetic acid]	0.417	–
CN(c1ncc(Cl)cn1)C1CCc2c(CC(=O)O)c3ccc(F)cc3n2C1 (centres unmarked) [Example 17, 2-(7-((5-chloropyrimidin-2-yl)(methyl)amino)-3-fluoro-6,7,8,9-tetrahydropyrido[1,2-a]indol-10-yl)acetic acid]	0.004	0.046
CN(c1ncc(C(F)(F)F)cn1)C1CCc2c(CC(=O)O)c3ccc(F)cc3n2C1 (centres unmarked) [Example 18, 2-(3-fluoro-7-(methyl(5-(trifluoromethyl)pyrimidin-2-yl)amino)-6,7,8,9-tetrahydropyrido[1,2-a]indol-10-yl)acetic acid]	0.006	0.071
CN(c1ncc(Cl)cn1)C1CCc2c(CC(=O)O)c3cc(OC(F)(F)F)ccc3n2C1 (centres unmarked) [Example 23, 2-(7-((5-chloropyrimidin-2-yl)(methyl)amino)-2-(trifluoromethoxy)-6,7,8,9-tetrahydropyrido[1,2-a]indol-10-yl)acetic acid]	0.354	–
CN(c1ncc(F)cn1)C1CCc2c(CC(=O)O)c3cc(OC(F)(F)F)ccc3n2C1 (centres unmarked) [Example 25, 2-(7-((5-fluoropyrimidin-2-yl)(methyl)amino)-2-(trifluoromethoxy)-6,7,8,9-tetrahydropyrido[1,2-a]indol-10-yl)acetic acid]	0.141	–
Cc1nc(N(C)C2CCc3c(CC(=O)O)c4ccc(Cl)cc4n3C2)c2ccccc2n1 (centres unmarked) [Example 42, 2-(3-chloro-7-(methyl(2-methylquinazolin-4-yl)amino)-6,7,8,9-tetrahydropyrido[1,2-a]indol-10-yl)acetic acid]	0.071	–

Further lines, results first:

IC50 (hCRTH2 receptor [1]) [µM]	IC50 (hCRTH2 receptor [2]) [µM]	SMILES
0.009	0.043	CN(c1nc2ccc(F)cc2s1)C1CCc2c(CC(=O)O)c3ccccc3n2C1 (centres unmarked) [Example 4, 2-(7-((6-fluorobenzo[d]thiazol-2-yl)(methyl)amino)-6,7,8,9-tetrahydropyrido[1,2-a]indol-10-yl)acetic acid]
0.016	0.024	CN(c1nc2cc(F)ccc2o1)C1CCc2c(CC(=O)O)c3ccccc3n2C1 (centres unmarked) [Example 5, 2-(7-((5-fluorobenzo[d]oxazol-2-yl)(methyl)amino)-6,7,8,9-tetrahydropyrido[1,2-a]indol-10-yl)acetic acid]
0.092	0.059	CN(c1nc2cc(F)ccc2s1)C1CCc2c(CC(=O)O)c3ccccc3n2C1 (centres unmarked) [Example 6, 2-(7-((5-fluorobenzo[d]thiazol-2-yl)(methyl)amino)-6,7,8,9-tetrahydropyrido[1,2-a]indol-10-yl)acetic acid]
0.012	0.123	CN(c1nc2cc(F)ccc2o1)C1CCc2c(CC(=O)O)c3cc(F)ccc3n2C1 (centres unmarked) [Example 8, 2-(2-fluoro-7-((5-fluorobenzo[d]oxazol-2-yl)(methyl)amino)-6,7,8,9-tetrahydropyrido[1,2-a]indol-10-yl)acetic acid]
0.0007	0.007	CN(c1nc2cc(F)ccc2o1)C1CCc2c(CC(=O)O)c3ccc(F)cc3n2C1 (centres unmarked) [Example 10, 2-(3-fluoro-7-((5-fluorobenzo[d]oxazol-2-yl)(methyl)amino)-6,7,8,9-tetrahydropyrido[1,2-a]indol-10-yl)acetic acid]
0.231	–	COc1ccc2c(c1)c(CC(=O)O)c1n2CC(N(C)c2nc3cc(F)ccc3o2)CC1 (centres unmarked) [Example 12, 2-(7-((5-fluorobenzo[d]oxazol-2-yl)(methyl)amino)-2-methoxy-6,7,8,9-tetrahydropyrido[1,2-a]indol-10-yl)acetic acid]
0.042	> 1	Cc1ccc2c(c1)c(CC(=O)O)c1n2CC(N(C)c2nc3cc(F)ccc3o2)CC1 (centres unmarked) [Example 14, 2-(7-((5-fluorobenzo[d]oxazol-2-yl)(methyl)amino)-2-methyl-6,7,8,9-tetrahydropyrido[1,2-a]indol-10-yl)acetic acid]
0.136	–	CN(c1ncc(F)cn1)C1CCc2c(CC(=O)O)c3cc(Cl)ccc3n2C1 (centres unmarked) [Example 15, 2-(2-chloro-7-((5-fluoropyrimidin-2-yl)(methyl)amino)-6,7,8,9-tetrahydropyrido[1,2-a]indol-10-yl)acetic acid]
0.021	> 1	CN(c1nc2cc(F)ccc2o1)C1CCc2c(CC(=O)O)c3cc(Cl)ccc3n2C1 (centres unmarked) [Example 16, 2-(2-chloro-7-((5-fluorobenzo[d]oxazol-2-yl)(methyl)amino)-6,7,8,9-tetrahydropyrido[1,2-a]indol-10-yl)acetic acid]
0.051	–	CN(c1nc2cc(F)ccc2s1)C1CCc2c(CC(=O)O)c3ccc(F)cc3n2C1 (centres unmarked) [Example 19, 2-(3-fluoro-7-((5-fluorobenzo[d]thiazol-2-yl)(methyl)amino)-6,7,8,9-tetrahydropyrido[1,2-a]indol-10-yl)acetic acid]
0.812	–	CN(c1nc2ccc(F)cc2s1)C1CCc2c(CC(=O)O)c3cc(OC(F)(F)F)ccc3n2C1 (centres unmarked) [Example 27, 2-(7-((6-fluorobenzo[d]thiazol-2-yl)(methyl)amino)-2-(trifluoromethoxy)-6,7,8,9-tetrahydropyrido[1,2-a]indol-10-yl)acetic acid]
0.964	–	CN(c1nc2cc(F)ccc2o1)C1CCc2c(CC(=O)O)c3cc(OC(F)(F)F)ccc3n2C1 (centres unmarked) [Example 29, 2-(7-((5-fluorobenzo[d]oxazol-2-yl)(methyl)amino)-2-(trifluoromethoxy)-6,7,8,9-tetrahydropyrido[1,2-a]indol-10-yl)acetic acid]

Reference: patent publication US9096595B2, “7-(heteroaryl-amino)-6,7,8,9-tetrahydropyrido[1,2-a]indol acetic acid derivatives and their use as prostaglandin D2 receptor modulators” (Actelion Pharmaceuticals Ltd, priority 2011, dated 2015)
